# Legend:
# [1] = target: T1, human pancreatic lipase (HPL) (Homo sapiens, UniProt P16233); test: Inhibition of human pancreatic lipase pre-incubated with THL, coated tung oil triglyceride microplate (method A); format: biochemical; conditions: OD at 272 nm
# T1 sequence (P16233 17-465): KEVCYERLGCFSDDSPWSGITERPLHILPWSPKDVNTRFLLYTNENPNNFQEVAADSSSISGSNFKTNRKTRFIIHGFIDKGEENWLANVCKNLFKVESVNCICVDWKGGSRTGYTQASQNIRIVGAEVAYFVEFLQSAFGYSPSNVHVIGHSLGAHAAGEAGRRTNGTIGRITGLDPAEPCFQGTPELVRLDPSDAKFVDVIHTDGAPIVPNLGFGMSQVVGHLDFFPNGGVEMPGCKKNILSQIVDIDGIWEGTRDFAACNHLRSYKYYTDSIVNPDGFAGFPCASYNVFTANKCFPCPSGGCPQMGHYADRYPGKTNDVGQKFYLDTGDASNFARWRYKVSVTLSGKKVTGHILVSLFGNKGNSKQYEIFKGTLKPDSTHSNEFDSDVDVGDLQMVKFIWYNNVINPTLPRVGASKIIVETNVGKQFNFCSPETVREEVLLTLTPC
# Experimental: FIGS. 4A and 4B represent the inhibition kinetics of HPL (human pancreatic lipase) by THL (tetrahydrolipstatin). The microplate is prepared by “coating” with triglycerides (50 μg/well) extracted from tung oil which contains a high proportion of a-eleostearic acid. A solution (200 μl) of Tris buffer is added to the wells. The activity of the HPL alone, or pre-incubated with the THL, is measured by recording the optical density (method A; FIG. 4A). FIG. 4A represents the optical density (OD) at 272 nm as a function of time. The curve with the black circles corresponds to the lipase HPL alone; the curve with the black squares corresponds to the lipase HPL pre-incubated with THL in a ratio of 1:100 and the curve with the white circles corresponds to the lipase HPL pre-incubated with THL in a ratio of 1:50. The microtitration plates, with “coating” of the lipid substrate, are prepared as has been described above. A solution constituted by Tris buffer and β-cyclodextrin (3 mg/ml) is added into the wells. The optical density at 270 nm is recorded as a function of time for 5 to 10 min (see FIGS. 4A and 4B). A solution of human pancreatic lipase (HPL), alone or pre-incubated with THL (inhibitor), is injected into the wells. The enzymatic activity is then recorded as a function of time by measurement of the OD at 272 nm (method A; FIG. 4A). […]
# [2] = target: T1, human pancreatic lipase (HPL); test: Inhibition of human pancreatic lipase by THL injected during lipolysis, coated microplate (method B); format: biochemical; conditions: THL 10 nM final injected during lipolysis, HPL 2 nM final
# Experimental: FIG. 4B corresponds to a different protocol (method B): after the injection of HPL (at a final concentration of 2 nM), THL is injected into the reaction medium (at a final concentration of 10 nM) during lipolysis. The microtitration plates, with “coating” of the lipid substrate, are prepared as has been described above. A solution constituted by Tris buffer and β-cyclodextrin (3 mg/ml) is added into the wells. The optical density at 270 nm is recorded as a function of time for 5 to 10 min (see FIGS. 4A and 4B). A solution of human pancreatic lipase (HPL), alone or pre-incubated with THL (inhibitor), is injected into the wells. The enzymatic activity is then recorded as a function of time by measurement of the OD at 272 nm (method A; FIG. 4A). The pre-incubation of HPL with THL, at a molar excess of 1 to 100 or of 1 to 50 for 10 min, reduces the initial lipase activity by 75% or 40% respectively (see FIG. 4A). The effect of THL on the lipase activity has also been measured by injecting THL during lipolysis (method B; FIG. 4B). The injection of THL (at a final concentration of 10 nM) reduces the activity of HPL by approximately 40%.
compound,measurement,setting,value
"CCCCCCCCCCC[C@@H](C[C@@H]1OC(=O)[C@H]1CCCCCC)OC(=O)[C@H](CC(C)C)NC=O [THL, Tetrahydrolipstatin]",reduction of the initial lipase activity,[1]; HPL pre-incubated with THL at a molar excess of 1 to 50 for 10 min,40%
same,reduction of the initial lipase activity,[1]; HPL pre-incubated with THL at a molar excess of 1 to 100 for 10 min,75%
same,reduction of the activity of HPL,[2],approximately 40%

# Reference: patent publication US20080193958A1, “Method for the High-Speed Detection and/or Measurement of a Lipase or Phospholipase Activity” (CENTRE NATIONAL DE LA RECHERCHE SCIENTIFIQUE, priority 2005, published 2008)
